US20220233457A1 (DAEGU CATHOLIC UNIVERSITY INDUSTRY ACADEMIC COOPERATION …, priority 2021, published 2022)
“Also recorded” adds a separate entry of the source.

How the values were obtained:
MMP-9 = MMP-9 expression in cerebral arterial wall (IHC, real-time PCR, Western blot); assay type: in vivo, mouse; settings: compared to diseased group (D); for expression level of MMP-9 protein: Western blot; for MMP-9 expression in the cerebral arterial wall: immunohistochemistry staining, levels 0 to 2
Protocol: (§1) A male C57BL/6J mouse was purchased from Samtako Bio Korea, and, after acclimation for about 1 week, the healthy animals were housed in a polycarbonate cage with random allocation to each test group. Environmental condition for breeding includes a temperature of 22±3° C., relative humidity of 50±10%, lighting hour of 12 hours, and illuminance of 150 to 300 lux. The animals were allowed free access to food and water. Hypertension was induced by a high salt diet, unilateral nephrectomy, and subcutaneous pump infusion of angiotensin II.
(§2) Specifically, a male C57BL/6J mouse was anesthetized with isoflurane gas and the left kidney was removed by surgery. One week after the surgery, the mouse was fixed onto a nose cone, anesthetized with isoflurane gas by inhalation, and then fixed on a stereostatic system. By using a 10 μl Hamilton syringe, 10 μl of 1.0 U elastase solution was injected to the right cistern to induce cerebral aneurysm. For elastase injection, 1.0 U elastase was injected through a hole on the right skull, under anesthetization with isoflurane gas by inhalation, by pushing the syringe to a space of cerebrospinal fluid in the right bottom, 2.5 mm behind the bregma (parietal point) and 1.0 mm to the right of the center line, and elastase was injected to the depth of 5.0 min.
(§3) After that, to have a continuous infusion of angiotensin II, an osmotic pump was subcutaneously inserted (1000 ng/kg/min) and cerebral aneurysm was induced by performing a high salt diet (8% NaCl, Enbigo) for 14 days (FIG. 2).
(§4) To the all test groups, the pharmaceutical was administered in an amount of 0.1 ml.
By using the brain tissues harvested in above Example 2, a change in the expression level of MMP-9 in the cerebral arterial wall was determined by immunohistochemistry (IHC) staining. The result was classified into level 0 to level 2 and subjected to statistical analysis, while it was measured by real-time PCR and Western blot.
(§5) For the real-time PCR performed in above Examples 4 to 6, the primers described in the following Table 1 were used.

TNF-α = TNF-α expression in cerebral arterial wall (IHC, real-time PCR, Western blot); assay type: in vivo, mouse; settings: for expression level of TNF-α protein: Western blot; for expression level of TNF-α protein / expression level of TNF-α gene: compared to group induced to have cerebral aneurysm; for expression level of TNF-α in cerebral arterial wall: immunohistochemistry staining, levels 0 to 2, compared to diseased group (D); for expression level of TNF-α gene: real-time PCR
Protocol: as §1, §2, §3, §4
By using the brain tissues harvested in above Example 2, a change in the expression level of TNF-α in the cerebral arterial wall was determined by immunohistochemistry (IHC) staining. The result was classified into level 0 to level 2 and subjected to statistical analysis, while it was measured by real-time PCR and Western blot assays.
as §5

[1] = test system: mouse induced to have a cerebral aneurysm; assay: H&E staining of cerebral arteries (diameter, thickness) in animal model induced to have a cerebral aneurysm; assay type: in vivo; settings: compared to diseased group (D); via tail vein, 5 times every three days; brain harvested at week 4
Protocol: as §1, §2, §3
To the all test groups, the pharmaceutical was administered in an amount of 0.1 ml. […]
According to the visualization of cell nucleus, cytoplasm, and extracellular matrix by H&E staining of cerebral artery tissues, a change in the structure and shape of the cerebral artery was analyzed. To examine a change in the brain arterial wall, an immunohistochemical microscopic image was scanned and the diameter and thickness of the artery were measured by using Case Viewer software.

CD68 = CD68 (macrophage marker) expression in cerebral arterial wall (IHC); assay type: in vivo, mouse; settings: immunohistochemistry staining, levels 0 to 2; compared to diseased group (D)
Protocol: as §1
Specifically, a male C57BL/6J mouse was anesthetized with isoflurane gas and the left kidney was removed by surgery. One week after the surgery, the mouse was fixed onto a nose cone, anesthetized with isoflurane gas by inhalation, and then fixed on a stereostatic system. By using a 10 μl Hamilton syringe, 10 μl of 1.0 U elastase solution was injected to the right cistern to induce cerebral aneurysm. […]
(§6) By using the brain tissues harvested in above Example 2, a change in the expression level of MCP-1 and CD68 in the cerebral arterial wall was determined by immunohistochemistry (IHC) staining. The result was classified into level 0 to level 2 and subjected to statistical analysis, while it was measured by real-time PCR and Western blot.

[2] = test system: mouse induced to have a cerebral aneurysm; assay: Trichrome staining, collagen content of cerebral artery wall; assay type: in vivo; settings: via tail vein, week 4
Protocol: as §1
as §2, with “[…]. […]” for “min.”

[3] = test system: mouse induced to have a cerebral aneurysm; assay: Verhoff Van Gieson staining, elastin content of cerebral arterial wall; assay type: in vivo; settings: healthy group 37.6±8.8%, diseased group 5.9±3.7%; via tail vein; week 4
Protocol: as §1
as §2, with “[…]. […]” for “min.”
Elastin content was analyzed by Verhoff Van Gieson staining technique.

mouse blood = assay: Hemolysis test; assay type: cell-based; settings: at 50 μg/mL
MCP-1 = MCP-1 expression in cerebral arterial wall (IHC, real-time PCR, Western blot); assay type: in vivo, mouse; settings: compared to diseased group (D); for expression level of MCP-1 protein: Western blot; for expression level of MCP-1 in the cerebral arterial wall: immunohistochemistry staining, levels 0 to 2
Protocol: as §1, §2, §3, §4, §6, §5

NFκB = NFκB expression in cerebral arterial wall (real-time PCR, Western blot); assay type: in vivo, mouse; settings: compared to group induced to have cerebral aneurysm; for expression level of NFκB protein: Western blot; for expression level of NFκB gene: real-time PCR
RAW 264.7 cells = assay: Cytotoxicity, MTT assay; assay type: cell-based; settings: for concentration at which cell viability is lowered by cytotoxicity: MTT assay, treatment time not stated in Example 7; for melittin concentration at which cell viability was significantly decreased: RAW 264.7 cells, 0.1-4 μg/ml tested
[4] = Stability of melittin solution on storage; assay type: physicochemical; settings: 0.36 mM (=1.0 mg/ml) melittin solution, 4° C. for 8 weeks

## MeLioN: iron oxide nanoparticle loaded with melittin, formed by linking iron oxide nanoparticle, L-arginine, and melittin
MMP-9
  expression level of MMP-9 protein: lower
  MMP-9 expression in the cerebral arterial wall: suppressed
MMP-9; real-time PCR
  expression level of MMP-9 gene: lower
TNF-α
  expression level of TNF-α protein: lower
  expression level of TNF-α in cerebral arterial wall: suppressed
  expression level of TNF-α gene: lower
[1]
  diameter of cerebral arteries: statistically significant decrease; also recorded: significantly smaller
  thickness of cerebral arteries: increase; also recorded: significantly greater
CD68
  expression level of CD68 in the cerebral arterial wall: suppressed
[2]; normal group 8.7±3.8%, diseased group 32.0±5.5%
  collagen content: 12.6±5.1%
[3]
  elastin content: 34.9±6.2%
Mouse blood
  Hemolysis: approximately 10%
MCP-1
  expression level of MCP-1 protein: lower
  expression level of MCP-1 in the cerebral arterial wall: suppressed
MCP-1; real-time PCR
  expression level of MCP-1 gene: lower
NFκB
  expression level of NFκB protein: lower
  expression level of NFκB gene: lower
RAW 264.7 cells
  concentration at which cell viability is lowered by cytotoxicity: > 4000 ng/mL
RAW 264.7 cells; 12 h treatment
  melittin concentration at which cell viability was significantly decreased: > 4 µg/mL
RAW 264.7 cells; 24 h treatment
  melittin concentration at which cell viability was significantly decreased: > 4 µg/mL

## CC[C@H](C)[C@H](NC(=O)CN)C(=O)NCC(=O)N[C@@H](C)C(=O)N[C@H](C(=O)N[C@@H](CC(C)C)C(=O)N[C@@H](CCCCN)C(=O)N[C@H](C(=O)N[C@@H](CC(C)C)C(=O)N[C@H](C(=O)N[C@H](C(=O)NCC(=O)N[C@@H](CC(C)C)C(=O)N1CCC[C@H]1C(=O)N[C@@H](C)C(=O)N[C@@H](CC(C)C)C(=O)N[C@H](C(=O)N[C@@H](CO)C(=O)N[C@@H](Cc1c[nH]c2ccccc12)C(=O)N[C@H](C(=O)N[C@@H](CCCCN)C(=O)N[C@@H](CCCNC(=N)N)C(=O)N[C@@H](CCCCN)C(=O)N[C@@H](CCCNC(=N)N)C(=O)N[C@@H](CCC(N)=O)C(=O)N[C@@H](CCC(N)=O)C(N)=O)[C@@H](C)CC)[C@@H](C)CC)[C@@H](C)O)[C@@H](C)O)C(C)C)C(C)C [MEL, melittin]
MMP-9
  expression level of MMP-9 protein: lower
  MMP-9 expression in the cerebral arterial wall: suppressed
TNF-α
  expression level of TNF-α protein: lower
  expression level of TNF-α in cerebral arterial wall: suppressed
  expression level of TNF-α gene: lower
[1]
  thickness of cerebral arteries: increase
CD68
  expression level of CD68 in the cerebral arterial wall: suppressed
[2]; statistical comparison with diseased group
  collagen content compared to the diseased group (D): no statistical difference
[3]
  elastin content: 19.7±7.8%
[4]
  stability of solution: stably maintained
MCP-1
  expression level of MCP-1 protein: lower
  expression level of MCP-1 in the cerebral arterial wall: suppressed
NFκB
  expression level of NFκB protein: lower
  expression level of NFκB gene: lower
RAW 264.7 cells
  concentration at which cell viability is lowered by cytotoxicity: ≥ 500 ng/mL
